Results: patent US20240010634A1, “PYRIMIDINYL SULFONAMIDES AS INHIBITORS OF ACK1/TNK2 TYROSINE KINASE” (H. LEE MOFFITT CANCER CENTER AND RESEARCH INSTITUTE, INC., priority 2020, published 2024)
“And” between values parts separate entries of the source, which are not always exact repeats. Equal values may be shown once.

Tests used:
[1] = molecular target: T1, ACK1 (Homo sapiens (Human), UniProt Q07912); assay: Reaction Biology 33P Hotspot assay; assay type: biochemical
[2] = molecular target: T1, ACK1; assay: ACK1 IC50 (Table 1, method not described); assay type: biochemical
[3] = tested on: MDA-MB-231; assay: Cell viability (MDA-MB-231); assay type: cell-based; details: Homo sapiens
[4] = tested on: UKE1; assay: Cell viability (UKE1); assay type: cell-based

T1 sequence (Q07912 whole entry): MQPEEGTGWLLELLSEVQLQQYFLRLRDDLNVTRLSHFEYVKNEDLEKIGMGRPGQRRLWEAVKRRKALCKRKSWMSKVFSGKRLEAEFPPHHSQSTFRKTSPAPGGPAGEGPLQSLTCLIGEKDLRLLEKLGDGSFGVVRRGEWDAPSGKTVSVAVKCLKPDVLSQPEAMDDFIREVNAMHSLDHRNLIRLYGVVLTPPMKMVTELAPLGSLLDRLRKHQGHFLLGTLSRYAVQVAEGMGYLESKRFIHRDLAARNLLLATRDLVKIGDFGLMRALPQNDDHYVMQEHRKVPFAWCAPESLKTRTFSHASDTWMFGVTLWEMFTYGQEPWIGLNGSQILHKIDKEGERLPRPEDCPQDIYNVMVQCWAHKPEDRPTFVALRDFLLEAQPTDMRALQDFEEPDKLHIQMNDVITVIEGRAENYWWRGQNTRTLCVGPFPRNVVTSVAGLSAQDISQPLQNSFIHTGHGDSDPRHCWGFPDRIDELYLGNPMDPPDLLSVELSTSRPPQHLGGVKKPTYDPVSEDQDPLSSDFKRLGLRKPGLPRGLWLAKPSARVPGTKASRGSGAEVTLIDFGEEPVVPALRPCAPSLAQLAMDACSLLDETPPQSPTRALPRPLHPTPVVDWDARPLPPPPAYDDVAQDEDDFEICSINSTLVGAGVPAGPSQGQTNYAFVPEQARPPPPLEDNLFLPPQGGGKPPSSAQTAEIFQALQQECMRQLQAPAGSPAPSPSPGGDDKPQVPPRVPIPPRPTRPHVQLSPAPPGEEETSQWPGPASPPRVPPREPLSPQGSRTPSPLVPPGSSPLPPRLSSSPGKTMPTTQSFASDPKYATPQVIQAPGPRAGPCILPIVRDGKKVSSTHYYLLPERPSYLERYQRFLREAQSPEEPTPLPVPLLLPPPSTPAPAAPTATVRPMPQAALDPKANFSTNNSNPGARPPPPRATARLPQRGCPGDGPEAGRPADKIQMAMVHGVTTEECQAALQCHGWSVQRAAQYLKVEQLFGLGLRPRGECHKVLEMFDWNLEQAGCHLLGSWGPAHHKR

SMILES | IC50 [1] | further results
Cc1cnc(Nc2ccc(OCC3CCOCC3)cc2)nc1Nc1cccc(NS(=O)(=O)C(C)(C)C)c1 [2-methyl-N-(3-((5-methyl-2-((4-((tetrahydro-2H-pyran-4-yl)methoxy)phenyl)amino)pyrimidin-4-yl)amino)phenyl)propane-2-sulfonamide] | 26 nM | 
COc1cc(N2CCN(C)CC2)ccc1Nc1ncc(C)c(Nc2ccc(Cl)c(NS(=O)(=O)C(C)(C)C)c2)n1 [N-(2-chloro-5-((2-((2-methoxy-4-(4-methylpiperazin-1-yl)phenyl)amino)-5-methylpyrimidin-4-yl)amino)phenyl)-2-methylpropane-2-sulfonamide] |  | IC50 [2]: 33.2 nM
Cc1cnc(Nc2ccc(N3CCN(C)CC3)c(OC(C)C)c2)nc1Nc1ccc(Cl)c(NS(=O)(=O)C(C)(C)C)c1 [N-(2-chloro-5-((2-((3-isopropoxy-4-(4-methylpiperazin-1-yl)phenyl)amino)-5-methylpyrimidin-4-yl)amino)phenyl)-2-methylpropane-2-sulfonamide] | 14 nM | EC50 [3]: 220 nM; EC50 [4]: 850 nM
Cc1cnc(Nc2ccc(N3CCN(C)CC3)cc2OC2CCC2)nc1Nc1cccc(NS(=O)(=O)C(C)(C)C)c1 [N-(3-((2-((2-cyclobutoxy-4-(4-methylpiperazin-1-yl)phenyl)amino)-5-methylpyrimidin-4-yl)amino)phenyl)-2-methylpropane-2-sulfonamide] | 26.2 nM | 
Cc1cnc(Nc2ccc(-c3cnn(C)c3)cc2OC(C)C)nc1Nc1cccc(NS(=O)(=O)C(C)(C)C)c1 [N-(3-((2-((2-isopropoxy-4-(1-methyl-1H-pyrazol-4-yl)phenyl)amino)-5-methylpyrimidin-4-yl)amino)phenyl)-2-methylpropane-2-sulfonamide] | 149 nM | 
COc1cc(-c2cnn(C)c2)ccc1Nc1ncc(C)c(Nc2cccc(NS(=O)(=O)C(C)(C)C)c2)n1 [N-(3-((2-((2-methoxy-4-(1-methyl-1H-pyrazol-4-yl)phenyl)amino)-5-methylpyrimidin-4-yl)amino)phenyl)-2-methylpropane-2-sulfonamide] | 15.2 nM | 
COc1cc(-n2cccn2)ccc1Nc1ncc(C)c(Nc2cccc(NS(=O)(=O)C(C)(C)C)c2)n1 [N-(3-((2-((2-methoxy-4-(1H-pyrazol-1-yl)phenyl)amino)-5-methylpyrimidin-4-yl)amino)phenyl)-2-methylpropane-2-sulfonamide] | 19.8 nM | EC50 [3]: 11000 nM; EC50 [4]: > 10000 nM
COc1cc(N2CCN(C)CC2)ccc1Nc1ncc(C)c(Nc2cccc(NS(=O)(=O)C(C)(C)C)c2)n1 [N-(3-((2-((2-methoxy-4-(4-methylpiperazin-1-yl)phenyl)amino)-5-methylpyrimidin-4-yl)amino)phenyl)-2-methylpropane-2-sulfonamide] | 21.9 nM | IC50 [2]: 34.5 nM
COc1c(Nc2ncc(C)c(Nc3cccc(NS(=O)(=O)C(C)(C)C)c3)n2)ccc(N2CCN(C)CC2)c1F [N-(3-((2-((3-fluoro-2-methoxy-4-(4-methylpiperazin-1-yl)phenyl)amino)-5-methylpyrimidin-4-yl)amino)phenyl)-2-methylpropane-2-sulfonamide] | 37.6 nM | 
Cc1cnc(Nc2ccc(-c3cnn(C)c3)c(OC(C)C)c2)nc1Nc1cccc(NS(=O)(=O)C(C)(C)C)c1 [N-(3-((2-((3-isopropoxy-4-(1-methyl-1H-pyrazol-4-yl)phenyl)amino)-5-methylpyrimidin-4-yl)amino)phenyl)-2-methylpropane-2-sulfonamide] | 26 nM | 
Cc1cnc(Nc2ccc(N3CCN(C)CC3)c(OC(C)C)c2)nc1Nc1cccc(NS(=O)(=O)C(C)(C)C)c1 [N-(3-((2-((3-isopropoxy-4-(4-methylpiperazin-1-yl)phenyl)amino)-5-methylpyrimidin-4-yl)amino)phenyl)-2-methylpropane-2-sulfonamide] | 13 nM and 13.8 nM | EC50 [3]: 213 nM; EC50 [4]: 470 nM
COc1cc(Nc2ncc(C)c(Nc3cccc(NS(=O)(=O)C(C)(C)C)c3)n2)ccc1-c1cnn(C)c1 [N-(3-((2-((3-methoxy-4-(1-methyl-1H-pyrazol-4-yl)phenyl)amino)-5-methylpyrimidin-4-yl)amino)phenyl)-2-methylpropane-2-sulfonamide] | 19 nM | 
COc1cc(N2CCN(C(C)=O)CC2)ccc1Nc1ncc(C)c(Nc2cccc(NS(=O)(=O)C(C)(C)C)c2)n1 [N-(3-((2-((4-(4-acetylpiperazin-1-yl)-2-methoxyphenyl)amino)-5-methylpyrimidin-4-yl)amino)phenyl)-2-methylpropane-2-sulfonamide] | 21.3 nM | 
CC(=O)N1CCN(c2ccc(Nc3ncc(C)c(Nc4cccc(NS(=O)(=O)C(C)(C)C)c4)n3)cc2OC(C)C)CC1 [N-(3-((2-((4-(4-acetylpiperazin-1-yl)-3-isopropoxyphenyl)amino)-5-methylpyrimidin-4-yl)amino)phenyl)-2-methylpropane-2-sulfonamide] | 13 nM | 
CC(=O)N1CCN(c2ccc(Nc3ncc(C)c(Nc4cccc(NS(=O)(=O)C(C)(C)C)c4)n3)cc2)CC1 [N-(3-((2-((4-(4-acetylpiperazin-1-yl)phenyl)amino)-5-methylpyrimidin-4-yl)amino)phenyl)-2-methylpropane-2-sulfonamide] | 15.3 nM | 
COc1cc(N2CCN(C)CC2)c(F)cc1Nc1ncc(C)c(Nc2cccc(NS(=O)(=O)C(C)(C)C)c2)n1 [N-(3-((2-((5-fluoro-2-methoxy-4-(4-methylpiperazin-1-yl)phenyl)amino)-5-methylpyrimidin-4-yl)amino)phenyl)-2-methylpropane-2-sulfonamide] | 16.9 nM | 
CN1CCN(c2ccc(Nc3ncc(Cl)c(Nc4cccc(NS(=O)(=O)C(C)(C)C)c4)n3)c(OC3CCC3)c2)CC1 [N-(3-((5-chloro-2-((2-cyclobutoxy-4-(4-methylpiperazin-1-yl)phenyl)amino)pyrimidin-4-yl)amino)phenyl)-2-methylpropane-2-sulfonamide] | 30 nM | 
CC(C)Oc1cc(Nc2ncc(Cl)c(Nc3cccc(NS(=O)(=O)C(C)(C)C)c3)n2)ccc1-c1cnn(C)c1 [N-(3-((5-chloro-2-((3-isopropoxy-4-(1-methyl-1H-pyrazol-4-yl)phenyl)amino)pyrimidin-4-yl)amino)phenyl)-2-methylpropane-2-sulfonamide] | 64 nM | 
CC(C)Oc1cc(Nc2ncc(Cl)c(Nc3cccc(NS(=O)(=O)C(C)(C)C)c3)n2)ccc1N1CCN(C)CC1 [N-(3-((5-chloro-2-((3-isopropoxy-4-(4-methylpiperazin-1-yl)phenyl)amino)pyrimidin-4-yl)amino)phenyl)-2-methylpropane-2-sulfonamide] | 15 nM | 
COc1cc(N2CCN(C)CC2)ccc1Nc1ncc(C)c(Nc2ccc(NS(=O)(=O)C(C)(C)C)cc2)n1 [N-(4-((2-((2-methoxy-4-(4-methylpiperazin-1-yl)phenyl)amino)-5-methylpyrimidin-4-yl)amino)phenyl)-2-methylpropane-2-sulfonamide] | 7.62 nM | 
Cc1cnc(Nc2ccc(-c3cnn(C)c3)c(OC(C)C)c2)nc1Nc1ccc(NS(=O)(=O)C(C)(C)C)cc1 [N-(4-((2-((3-isopropoxy-4-(1-methyl-1H-pyrazol-4-yl)phenyl)amino)-5-methylpyrimidin-4-yl)amino)phenyl)-2-methylpropane-2-sulfonamide] | 16.9 nM | 
Cc1cnc(Nc2ccc(N3CCN(C)CC3)c(OC(C)C)c2)nc1Nc1ccc(NS(=O)(=O)C(C)(C)C)cc1 [N-(4-((2-((3-isopropoxy-4-(4-methylpiperazin-1-yl)phenyl)amino)-5-methylpyrimidin-4-yl)amino)phenyl)-2-methylpropane-2-sulfonamide] | 18.7 nM | 
COc1cc(Nc2ncc(C)c(Nc3ccc(NS(=O)(=O)C(C)(C)C)cc3)n2)ccc1N1CCN(C)CC1 [N-(4-((2-((3-methoxy-4-(4-methylpiperazin-1-yl)phenyl)amino)-5-methylpyrimidin-4-yl)amino)phenyl)-2-methylpropane-2-sulfonamide] | 15.9 nM | 
COc1cc(N2CCN(C)CC2)c(F)cc1Nc1ncc(C)c(Nc2ccc(NS(=O)(=O)C(C)(C)C)cc2)n1 [N-(4-((2-((5-fluoro-2-methoxy-4-(4-methylpiperazin-1-yl)phenyl)amino)-5-methylpyrimidin-4-yl)amino)phenyl)-2-methylpropane-2-sulfonamide] | 30.8 nM | 
COc1cc(N2CCN(C)CC2)c(F)cc1Nc1ncc(C)c(Nc2ccc(NS(C)(=O)=O)cc2)n1 [N-(4-((2-((5-fluoro-2-methoxy-4-(4-methylpiperazin-1-yl)phenyl)amino)-5-methylpyrimidin-4-yl)amino)phenyl)methanesulfonamide] | 14.8 nM | 
COc1cc(N2CCN(C)CC2)ccc1Nc1ncc(Cl)c(Nc2ccc(NS(=O)(=O)C(C)(C)C)cc2)n1 [N-(4-((5-chloro-2-((2-methoxy-4-(4-methylpiperazin-1-yl)phenyl)amino)pyrimidin-4-yl)amino)phenyl)-2-methylpropane-2-sulfonamide] | 17.5 nM | 
CC(C)Oc1cc(Nc2ncc(Cl)c(Nc3ccc(NS(=O)(=O)C(C)(C)C)cc3)n2)ccc1-c1cnn(C)c1 [N-(4-((5-chloro-2-((3-isopropoxy-4-(1-methyl-1H-pyrazol-4-yl)phenyl)amino)pyrimidin-4-yl)amino)phenyl)-2-methylpropane-2-sulfonamide] | 75.9 nM | 
CC(C)Oc1cc(Nc2ncc(Cl)c(Nc3ccc(NS(=O)(=O)C(C)(C)C)cc3)n2)ccc1N1CCN(C)CC1 [N-(4-((5-chloro-2-((3-isopropoxy-4-(4-methylpiperazin-1-yl)phenyl)amino)pyrimidin-4-yl)amino)phenyl)-2-methylpropane-2-sulfonamide] | 15.5 nM | 
CC(C)Oc1cc(Nc2ncc(Cl)c(Nc3ccc(NS(C)(=O)=O)cc3)n2)ccc1N1CCN(C)CC1 [N-(4-((5-chloro-2-((3-isopropoxy-4-(4-methylpiperazin-1-yl)phenyl)amino)pyrimidin-4-yl)amino)phenyl)methanesulfonamide] | 26.7 nM | 
COc1cc(Nc2ncc(Cl)c(Nc3ccc(NS(=O)(=O)C(C)(C)C)cc3)n2)ccc1N1CCN(C)CC1 [N-(4-((5-chloro-2-((3-methoxy-4-(4-methylpiperazin-1-yl)phenyl)amino)pyrimidin-4-yl)amino)phenyl)-2-methylpropane-2-sulfonamide] | 17.5 nM | 
